Experimental findings from US8288385B2, “6-(3-aza-bicyclo[3.1.0]hex-3-yl)-2-phenyl-pyrimidines” (Actelion Pharmaceuticals Ltd., priority 2009, dated 2012) are described below.

What is called pIC50 is the IC50 on a negative log10 scale, so that one unit is a factor of ten.

pIC50: −log10 of the molar value.

In this assay the target is T1, human P2Y12 receptor (Homo sapiens, UniProt Q9H244).
T1 construct: expressed in transfected cells; host or cells: Chinese Hamster Ovary (CHO) cells
The assay can be described thus: P2Y12 receptor binding assay. Particulars: CHO cells with recombinant expression of the human P2Y12 receptor; tritium-labeled 2-methyl-S-ADP; RT, 2 hours. How it is done:
P2Y12 Receptor Binding Assay
Chinese Hamster Ovary (CHO) cells with recombinant expression of the human P2Y12 receptor were cultured in 24 well cell-culture plates. Cells were washed three times with binding buffer (50 mM Tris pH 7.4, 100 mM NaCl, 1 mM EDTA, 0.5% BSA). The cells were then incubated with 0.5 ml per well binding buffer containing tritium-labeled 2-methyl-thio-adenosine 5′-diphosphate (2-methyl-S-ADP) (between 100,000 and 300,000 dpm per well) and various concentrations of test compounds. After incubation at RT for 2 hours, cells were washed three times with binding buffer. Then, cells were solubilized by addition of 0.5 ml solubilization buffer (SDS, NaOH, EDTA). The content of each well was then transferred into beta-counter vials and 2.0 ml of Ultima Gold Scintillation liquid was added.

T1 sequence (Q9H244 whole entry): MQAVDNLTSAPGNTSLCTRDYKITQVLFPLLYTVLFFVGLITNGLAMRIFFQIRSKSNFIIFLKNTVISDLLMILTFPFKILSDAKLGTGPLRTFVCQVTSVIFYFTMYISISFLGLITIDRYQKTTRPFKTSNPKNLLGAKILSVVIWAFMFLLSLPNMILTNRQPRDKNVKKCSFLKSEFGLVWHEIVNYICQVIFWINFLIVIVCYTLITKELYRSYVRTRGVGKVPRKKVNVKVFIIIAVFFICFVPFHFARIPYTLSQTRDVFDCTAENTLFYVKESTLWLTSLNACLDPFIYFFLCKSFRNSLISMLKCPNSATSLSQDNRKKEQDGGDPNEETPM

On to `CCCCCOC(=O)N1CCN(C(=O)[C@@H](NC(=O)c2cc(N3C[C@@H]4[C@H](C3)[C@@H]4C(=O)O)nc(-c3ccccc3)n2)C(C)C)CC1` [Example 15, (1α,5α,6β)-3-{6-[(S)-2-Methyl-1-(4-pentyloxycarbonyl-piperazine-1-carbonyl)-propylcarbamoyl]-2-phenyl-pyrimidin-4-yl}-3-aza-bicyclo[3.1.0]hexane-6-carboxylic acid], for which the pIC50 is 7.82.
Take `CCCCOC(=O)N1CCN(C(=O)[C@@H](NC(=O)c2cc(N3C[C@@H]4[C@H](C3)[C@@H]4c3nnn[nH]3)nc(-c3ccccc3)n2)C(C)C)CC1` [Example 22]: the pIC50 is 7.42.
Then `CCCCOC(=O)N1CCN(C(=O)[C@@H](NC(=O)c2cc(N3C[C@@H]4[C@H](CC(=O)O)[C@@H]4C3)nc(-c3ccccc3)n2)C(C)C)CC1` [Example 25, 4-((S)-2-{[6-((1α,5α,6β)-6-Carboxymethyl-3-aza-bicyclo[3.1.0]hex-3-yl)-2-phenyl-pyrimidine-4-carbonyl]-amino}-3-methyl-butyryl)-piperazine-1-carboxylic acid butyl ester], with 7.89; and `CCCCOC(=O)N1CCN(C(=O)[C@@H](NC(=O)c2cc(N3C[C@@H]4[C@H](C3)[C@H]4C(=O)O)nc(-c3ccccc3)n2)C(C)C)CC1` [Example 12, (1α,5α,6α)-3-{6-[(S)-1-(4-Butoxycarbonyl-piperazine-1-carbonyl)-2-methyl-propylcarbamoyl]-2-phenyl-pyrimidin-4-yl}-3-aza-bicyclo[3.1.0]hexane-6-carboxylic acid], with 7.15.
For `CCCCOC(=O)N1CCN(C(=O)[C@H](CC2CC2)NC(=O)c2cc(N3C[C@@H]4[C@H](C3)[C@@H]4C(=O)O)nc(-c3ccccc3)n2)CC1` [Example 40, (1α,5α,6β)-3-{6-[(S)-2-(4-Butoxycarbonyl-piperazin-1-yl)-1-cyclopropylmethyl-2-oxo-ethylcarbamoyl]-2-phenyl-pyrimidin-4-yl}-3-aza-bicyclo[3.1.0]hexane-6-carboxylic acid] the value was 6.84.
Consider `CCCCOC(=O)N1CCN(C(=O)[C@@H](NC(=O)c2cc(N3C[C@@H]4[C@H](C3)[C@@H]4C(=O)O)nc(-c3cccc(C(F)(F)F)c3)n2)C(C)C)CC1` [Example 30, (1α,5α,6β)-3-[6-[(S)-1-(4-Butoxycarbonyl-piperazine-1-carbonyl)-2-methyl-propylcarbamoyl]-2-(3-trifluoromethyl-phenyl)-pyrimidin-4-yl]-3-aza-bicyclo[3.1.0]hexane-6-carboxylic acid], for which the pIC50 is 6.60.
Then `CCCCOC(=O)N1CCN(C(=O)[C@H](C)NC(=O)c2cc(N3C[C@@H]4[C@H](C3)[C@@H]4C(=O)O)nc(-c3ccccc3)n2)CC1` [Example 35, (1α,5α,6β)-3-{6-[(S)-2-(4-Butoxycarbonyl-piperazin-1-yl)-1-methyl-2-oxo-ethylcarbamoyl]-2-phenyl-pyrimidin-4-yl}-3-aza-bicyclo[3.1.0]hexane-6-carboxylic acid], with 7.29; and `CCCCCCOC(=O)N1CCN(C(=O)[C@@H](NC(=O)c2cc(N3C[C@@H]4[C@H](C3)[C@@H]4C(=O)O)nc(-c3ccccc3)n2)C(C)C)CC1` [Example 16, (1α,5α,6β)-3-{6-[(S)-1-(4-Hexyloxycarbonyl-piperazine-1-carbonyl)-2-methyl-propylcarbamoyl]-2-phenyl-pyrimidin-4-yl}-3-aza-bicyclo[3.1.0]hexane-6-carboxylic acid], with 7.47.
Take `CCCCOC(=O)N1CCN(C(=O)[C@@H](NC(=O)c2cc(N3C[C@@H]4[C@H](C3)[C@H]4c3nnn[nH]3)nc(-c3ccccc3)n2)C(C)C)CC1` [Example 19]: the pIC50 was 7.92.
`CCCCOC(=O)N1CCN(C(=O)[C@H](CCC(=O)O)NC(=O)c2cc(N3C[C@@H]4[C@H](C3)[C@@H]4C(=O)O)nc(-c3ccccc3)n2)CC1` [Example 2, (1α,5α,6β)-3-{6-[(S)-1-(4-Butoxycarbonyl-piperazine-1-carbonyl)-3-carboxy-propylcarbamoyl]-2-phenyl-pyrimidin-4-yl}-3-aza-bicyclo[3.1.0]hexane-6-carboxylic acid]: the negative-log IC50 (pIC50) is 8.43.
For `CCCCOC(=O)N1CCN(C(=O)[C@H](CCC(=O)O)NC(=O)c2cc(N3C[C@@H]4[C@H](C3)[C@H]4C(=O)O)nc(-c3ccccc3)n2)CC1` [Example 1, (1α,5α,6α)-3-{6-[(S)-1-(4-Butoxycarbonyl-piperazine-1-carbonyl)-3-carboxy-propylcarbamoyl]-2-phenyl-pyrimidin-4-yl}-3-aza-bicyclo[3.1.0]hexane-6-carboxylic acid] the value was 8.00; for `CCCCOC(=O)N1CCN(C(=O)[C@H](CC#N)NC(=O)c2cc(N3C[C@@H]4[C@H](C3)[C@@H]4C(=O)O)nc(-c3ccccc3)n2)CC1` [Example 48, (1α,5α,6β)-3-{6-[(S)-1-(4-Butoxycarbonyl-piperazine-1-carbonyl)-2-cyano-ethylcarbamoyl]-2-phenyl-pyrimidin-4-yl}-3-aza-bicyclo[3.1.0]hexane-6-carboxylic acid], 7.13; for `CCCCOC(=O)N1CCN(C(=O)[C@H](CCC)NC(=O)c2cc(N3C[C@@H]4[C@H](C3)[C@@H]4C(=O)O)nc(-c3ccccc3)n2)CC1` [Example 37, (1α,5α,6β)-3-{6-[(S)-1-(4-Butoxycarbonyl-piperazine-1-carbonyl)-butylcarbamoyl]-2-phenyl-pyrimidin-4-yl}-3-aza-bicyclo[3.1.0]hexane-6-carboxylic acid], 6.91.
Then `CCCCOC(=O)N1CCN(C(=O)[C@H](CCC(=O)O)NC(=O)c2cc(N3C[C@@H]4[C@@H](COC)[C@@H]4C3)nc(-c3ccccc3)n2)CC1` [Example 10, 4-((S)-4-Carboxy-2-{[6-((1α,5α,6α)-6-methoxymethyl-3-aza-bicyclo[3.1.0]hex-3-yl)-2-phenyl-pyrimidine-4-carbonyl]-amino}-butyryl)-piperazine-1-carboxylic acid butyl ester], with 8.18; and `CCCCOC(=O)N1CCN(C(=O)[C@@H](NC(=O)c2cc(N3C[C@@H]4[C@H](CCC(=O)O)[C@@H]4C3)nc(-c3ccccc3)n2)C(C)C)CC1` [Example 26, 4-[(S)-2-({6-[(1α,5α,6β)-6-(2-Carboxy-ethyl)-3-aza-bicyclo[3.1.0]hex-3-yl]-2-phenyl-pyrimidine-4-carbonyl}-amino)-3-methyl-butyryl]-piperazine-1-carboxylic acid butyl ester], with 7.23; and `CCCCOC(=O)N1CCN(C(=O)[C@H](CCc2nnn[nH]2)NC(=O)c2cc(N3C[C@@H]4[C@H](C3)[C@@H]4C(=O)O)nc(-c3ccccc3)n2)CC1` [Example 49, (1α,5α,6β)-3-{6-[(S)-1-(4-Butoxycarbonyl-piperazine-1-carbonyl)-3-(1H-tetrazol-5-yl)-propylcarbamoyl]-2-phenyl-pyrimidin-4-yl}-3-aza-bicyclo[3.1.0]hexane-6-carboxylic acid], with more than 8.49.
Regarding `CCCOC(=O)N1CCN(C(=O)[C@@H](NC(=O)c2cc(N3C[C@@H]4[C@H](C3)[C@@H]4C(=O)O)nc(-c3ccccc3)n2)C(C)C)CC1` [Example 14, (1α,5α,6β)-3-{6-[(S)-2-Methyl-1-(4-propoxycarbonyl-piperazine-1-carbonyl)-propylcarbamoyl]-2-phenyl-pyrimidin-4-yl}-3-aza-bicyclo[3.1.0]hexane-6-carboxylic acid], the pIC50 is 7.22.
Then `CCCCOC(=O)N1CCN(C(=O)[C@H](CC)NC(=O)c2cc(N3C[C@@H]4[C@H](C3)[C@@H]4C(=O)O)nc(-c3ccccc3)n2)CC1` [Example 36, (1α,5α,6β)-3-{6-[(S)-1-(4-Butoxycarbonyl-piperazine-1-carbonyl)-propylcarbamoyl]-2-phenyl-pyrimidin-4-yl}-3-aza-bicyclo[3.1.0]hexane-6-carboxylic acid], with 7.02; and `CCCCOC(=O)N1CCN(C(=O)[C@@H](NC(=O)c2cc(N3C[C@@H]4[C@H](C3)[C@@H]4C(=O)O)nc(-c3ccccc3)n2)C2CC2)CC1` [Example 41, (1α,5α,6β)-3-{6-[(S)-2-(4-Butoxycarbonyl-piperazin-1-yl)-1-cyclopropyl-2-oxo-ethylcarbamoyl]-2-phenyl-pyrimidin-4-yl}-3-aza-bicyclo[3.1.0]hexane-6-carboxylic acid], with 7.66; and `CCOC(=O)N1CCN(C(=O)C(NC(=O)c2cc(N3CC4C(C3)C4C(=O)O)nc(-c3ccccc3)n2)C(C)C)CC1` [Example 13, (1α,5α,6β)-3-{6-[(S)-1-(4-Ethoxycarbonyl-piperazine-1-carbonyl)-2-methyl-propylcarbamoyl]-2-phenyl-pyrimidin-4-yl}-3-aza-bicyclo[3.1.0]hexane-6-carboxylic acid], with 7.02.
`CCCCOC(=O)N1CCN(C(=O)[C@H](CCC(=O)O)NC(=O)c2cc(N3C[C@@H]4[C@H](C3)[C@H]4C(=O)OCC)nc(-c3ccccc3)n2)CC1` [Example 3, (1α,5α,6α)-3-{6-[(S)-1-(4-Butoxycarbonyl-piperazine-1-carbonyl)-3-carboxy-propylcarbamoyl]-2-phenyl-pyrimidin-4-yl}-3-aza-bicyclo[3.1.0]hexane-6-carboxylic acid ethyl ester]: the negative logarithm of the IC50 (pIC50) was 8.06.
In the case of `CCCCOC(=O)N1CCN(C(=O)[C@H](CCC(=O)O)NC(=O)c2cc(N3C[C@@H]4[C@H](N)[C@@H]4C3)nc(-c3ccccc3)n2)CC1` [Example 8, 4-((S)-2-{[6-((1α,5α,6β)-6-Amino-3-aza-bicyclo[3.1.0]hex-3-yl)-2-phenyl-pyrimidine-4-carbonyl]-amino}-4-carboxy-butyryl)-piperazine-1-carboxylic acid butyl ester], the pIC50 is 8.15.
